Target: human RXFP1 (Homo sapiens (Human), UniProt Q9HBX9)
Test: hRXFP1 HEK293 cAMP assay
Assay type: cell-based
Conditions: HEK293 cells stably expressing human RXFP1; 30 min at room temperature; HTRF cAMP
Protocol: RXFP1 Cyclic Adenosine Monophosphate (CAMP) Assays. Human embryonic kidney cells 293 (HEK293) cells and HEK293 cells stably expressing human RXFP1, were cultured in MEM medium supplemented with 10% qualified FBS, and 300 μg/ml hygromycin (Life Technologies). Cells were dissociated and suspended in assay buffer. The assay buffer was HBSS buffer (with calcium and magnesium) containing 20 mM HEPES, 0.05% BSA, and 0.5 mM IBMX. Cells (3000 cells per well, except 1500 cell per well for HEK293 cells stably expressing human RXFP1) were added to 384-well Proxiplates (Perkin-Elmer). Cells were immediately treated with test compounds in DMSO (2% final) at final concentrations in the range of 0.010 nM to 50 μM. Cells were incubated for 30 min at room temperature. The level of intracellular cAMP was determined using the HTRF HiRange CAMP assay reagent kit (Cisbio) according to manufacturer's instructions. Solutions of cryptate conjugated anti-cAMP and d2 fluorophore-labelled cAMP were made in a supplied lysis buffer separately. Upon completion of the reaction, the cells were lysed with equal volume of the d2-cAMP solution and anti-cAMP solution. After a 1 h room temperature incubation, time-resolved fluorescence intensity was measured using the Envision (Perkin-Elmer) at 400 nm excitation and dual emission at 590 nm and 665 nm. A calibration curve was constructed with an external cAMP standard at concentrations ranging from 2.7 μM to 0.1 μM by plotting the fluorescent intensity ratio from 665 nm emission to the intensity from the 590 nm emission against cAMP concentrations. The potency and activity of a compound to […] cAMP production was then determined by fitting to a 4-parametric logistic equation from a plot of cAMP level versus compound concentrations.
The examples disclosed below were tested in the human RXFP1 (hRXFP1) HEK293 cAMP assay described above and found to have agonist activity. Table A lists EC50 values in the hRXFP1 HEK293 cAMP assay measured for the examples.

human RXFP1, sequence (Q9HBX9 whole entry): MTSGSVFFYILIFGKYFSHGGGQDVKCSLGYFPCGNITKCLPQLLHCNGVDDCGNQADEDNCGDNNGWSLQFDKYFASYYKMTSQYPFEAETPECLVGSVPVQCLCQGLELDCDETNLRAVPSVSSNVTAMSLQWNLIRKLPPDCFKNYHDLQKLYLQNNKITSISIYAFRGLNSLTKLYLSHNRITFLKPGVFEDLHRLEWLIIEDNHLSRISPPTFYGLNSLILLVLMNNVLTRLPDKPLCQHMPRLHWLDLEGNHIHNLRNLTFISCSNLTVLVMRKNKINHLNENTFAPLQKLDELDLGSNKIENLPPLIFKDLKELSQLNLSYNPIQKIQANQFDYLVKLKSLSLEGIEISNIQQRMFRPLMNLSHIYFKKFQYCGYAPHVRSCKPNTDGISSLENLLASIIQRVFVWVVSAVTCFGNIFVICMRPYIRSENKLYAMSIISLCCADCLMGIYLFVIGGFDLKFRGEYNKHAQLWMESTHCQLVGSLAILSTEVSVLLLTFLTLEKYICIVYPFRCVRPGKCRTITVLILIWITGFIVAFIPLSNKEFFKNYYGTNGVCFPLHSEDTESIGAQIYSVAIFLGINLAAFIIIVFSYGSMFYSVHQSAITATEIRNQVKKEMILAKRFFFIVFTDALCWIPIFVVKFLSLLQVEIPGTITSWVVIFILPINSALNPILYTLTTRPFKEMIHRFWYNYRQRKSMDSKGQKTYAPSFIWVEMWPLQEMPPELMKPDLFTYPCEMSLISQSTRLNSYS

EC50	Molecule
823 nM	COc1ccc(C#CCO)cc1C(=O)N[C@H]1[C@@H]2CCC[C@@H]2[C@H]1C(=O)Nc1ccc(F)c(C(F)(F)F)c1 [Example 2, (1R,5S,6R,7S)—N-(4-fluoro-3-(trifluoromethyl)phenyl)-7-(5-(3-hydroxyprop-1-yn-1-yl)-2-methoxybenzamido) bicyclo[3.2.0]heptane-6-carboxamide]
2230 nM	COc1ccc(C2=NOC(CO)C2)cc1C(=O)NC1C2CCCC2C1C(=O)Nc1ccc(F)c(C(F)(F)F)c1 [Example 5, (1R,5S,6R,7S)-N-(4-fluoro-3-(tri-fluoromethyl)-phenyl)-7-(5-(5-(hydroxymethyl)-4,5-dihydroisox-azol-3-yl)-2-meth-oxybenzamido)-bicyclo[3.2.0] heptane-6-carbox-amide]
916 nM	COc1ccc(C2=NOC3CC(O)CC23)cc1C(=O)NC1C2CCCC2C1C(=O)Nc1ccc(F)c(C(F)(F)F)c1 [Example 3, (1R,5S,6R,7S)-N-(4-fluoro-3-(tri-fluoromethyl)-phenyl)-7-(5-(5-hydroxy-3a,5,6,6a-tetrahydro-4H-cyclopenta[d]isox-azol-3-yl)-2-meth-oxybenzamido)-bicyclo[3.2.0] heptane-6-carbox-amide]

Second part, the molecule before the results:

Molecule	EC50
COc1ccc(-c2cc(C(OC(=O)Nc3ccccc3)C(=O)O)ccc2F)cc1C(=O)N[C@H]1[C@@H]2CCC[C@@H]2[C@H]1C(=O)Nc1ccc(F)c(C(F)(F)F)c1 (stereo partly drawn) [Example 7, 2-(6-fluoro-3′-(((1S,5R,6S,7R)-7-((4-fluoro-3-(trifluoromethyl)phenyl)carbamoyl)bicyclo[3.2.0]heptan-6-yl)carbamoyl)-4′-methoxy-[1,1′-biphenyl]-3-yl)-2-((phenylcarbamoyl)oxy) acetic acid]	12 nM
COc1ccc(-c2cc(C(=O)O)ccc2F)cc1C(=O)N[C@H]1[C@@H]2CCC[C@@H]2[C@H]1C(=O)Nc1ccc(F)c(C(F)(F)F)c1 [Example 1, 6-fluoro-3′-(((1S,5R,6S,7R)-7-((4-fluoro-3-(trifluoromethyl)phenyl)carbamoyl)bicyclo[3.2.0]heptan-6-yl)carbamoyl)-4′-methoxy-[1,1′-biphenyl]-3-carboxylic acid]	1190 nM

System: not given
Test: not given
Conditions: intravenous (IV) formulation; cited from earlier work

Molecule	first-phase pharmacokinetic half-life
Serelaxin	5.4 min

Reference: patent US20250049765A1, “BICYCLO [3.2.0] HEPTANE BIS(AMIDE) RXFP1 AGONISTS” (BRISTOL-MYERS SQUIBB COMPANY, priority 2021, published 2025)
